Earlier results in patent US20230390178A1, “Skin Care Compositions and Methods of Use” (Colgate-Palmolive Company, priority 2022, published 2023).

Log P: −2.5
Structure (SMILES): O=C1O[C@H]([C@@H](O)CO)C(O)=C1O[C@H]1O[C@H](CO)[C@@H](O)[C@H](O)[C@H]1O [ascorbyl glucoside]
